Results as given in patent publication US20110144331A1, “Cinnoline Compounds for the Treatment of Anxiety, Cognitive and Mood Disorders” (AstraZeneca AB, priority 2005, published 2011).

Key:
[1] = molecular target: T1, human α2β3γ2 GABAA receptor (Homo sapiens, UniProt P18507+P47869); experiment: Two-electrode voltage-clamp in Xenopus oocytes, potentiation of GABA EC10 current, GABAA2; format: cell-based; settings: percentage potentiation of GABA EC10 current divided by that of diazepam control
T1 construct: expressed in transfected cells; host or cells: Xenopus laevis oocytes injected with capped cRNA (α:β:γ 1:1:1)
T1 sequence (P47869 29-451): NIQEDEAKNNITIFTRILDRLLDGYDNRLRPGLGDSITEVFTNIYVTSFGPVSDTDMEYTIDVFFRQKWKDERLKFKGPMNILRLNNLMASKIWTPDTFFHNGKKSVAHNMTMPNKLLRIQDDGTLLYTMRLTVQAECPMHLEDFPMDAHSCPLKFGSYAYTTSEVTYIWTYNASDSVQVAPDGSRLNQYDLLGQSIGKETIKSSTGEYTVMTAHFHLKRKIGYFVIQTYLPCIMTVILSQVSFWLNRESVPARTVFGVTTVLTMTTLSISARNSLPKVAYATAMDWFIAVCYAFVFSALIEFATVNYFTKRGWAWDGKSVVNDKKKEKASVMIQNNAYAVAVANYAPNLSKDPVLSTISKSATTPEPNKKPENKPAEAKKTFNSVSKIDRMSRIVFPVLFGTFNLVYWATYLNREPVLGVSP
T1 sequence (P18507 40-475): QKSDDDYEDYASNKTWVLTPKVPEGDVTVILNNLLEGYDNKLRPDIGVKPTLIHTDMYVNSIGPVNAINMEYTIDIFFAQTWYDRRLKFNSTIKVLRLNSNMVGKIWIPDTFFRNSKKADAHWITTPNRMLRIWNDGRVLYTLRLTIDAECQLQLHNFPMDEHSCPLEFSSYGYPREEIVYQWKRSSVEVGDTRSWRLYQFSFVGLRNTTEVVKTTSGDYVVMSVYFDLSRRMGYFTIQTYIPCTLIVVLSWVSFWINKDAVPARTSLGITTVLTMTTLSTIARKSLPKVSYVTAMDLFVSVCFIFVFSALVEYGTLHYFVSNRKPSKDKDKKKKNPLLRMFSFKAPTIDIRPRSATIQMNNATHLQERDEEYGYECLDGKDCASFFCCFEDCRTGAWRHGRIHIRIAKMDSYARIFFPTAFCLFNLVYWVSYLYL
T1 sequence (P28472 26-473 partner): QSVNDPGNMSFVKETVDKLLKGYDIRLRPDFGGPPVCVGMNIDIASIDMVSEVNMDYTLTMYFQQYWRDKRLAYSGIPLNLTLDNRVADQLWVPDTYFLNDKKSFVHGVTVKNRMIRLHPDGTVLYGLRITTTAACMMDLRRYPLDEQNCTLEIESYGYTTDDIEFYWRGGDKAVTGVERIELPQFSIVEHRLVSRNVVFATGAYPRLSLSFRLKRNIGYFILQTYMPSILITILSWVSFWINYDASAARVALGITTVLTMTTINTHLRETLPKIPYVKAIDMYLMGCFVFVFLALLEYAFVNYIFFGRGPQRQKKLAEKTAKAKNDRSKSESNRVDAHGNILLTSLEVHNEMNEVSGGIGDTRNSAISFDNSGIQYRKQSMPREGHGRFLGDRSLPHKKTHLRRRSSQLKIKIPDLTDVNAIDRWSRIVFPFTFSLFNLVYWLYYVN
Procedure: (§1) GABAA receptors were heterologously expressed in Xenopus oocytes by injecting cRNA corresponding to human α1, α2, α3, α5, β2, β3 and γ2 subunits of the GABAA receptor genes. The specific subunit combinations (subtypes) were as follows: α1β2γ2, α2β3γ2, α3β3γ2, and α5β3γ2. The EC10 of GABA was approximated for each cell. Stability of GABA-mediated (EC10) current was established. Modulatory effect of test compound was determined and compared across subtypes. […] Thus, the assay can characterize modulatory effects and determine subtype selectivity of test compounds on major subtypes of GABAA receptors.
(§2) Surgically removed ovarian lobes were teased out in OR2 solution (82 NaCl, 2.5 KCl, 5 HEPES, 1.5 NaH2PO4, 1 MgCl2, 0.1 EDTA, in mM, pH 7.4). The oocytes were defolliculated by incubation in 25 mL OR2 containing 0.2% collagenase 1A (SIGMA) two times for about 60 minutes on a platform shaker and stored in Leibovitz's L-15 medium. Oocytes were injected the following day in 0.5× Leibovitz's L-15 medium containing […] gentamycin, 10 units/ml penicillin, and […] streptomycin.
(§3) Capped cRNAs from the linearized vectors containing human α1, β2 and γ2 subunits of the GABAA receptor genes were mixed in ratio of 1:1:30. Oocytes were injected with 25-50 nL of mixed RNA with an appx molar ratio for α1, β2, and γ2 as 1:1:10. Oocyte recordings were done 2-10 days after injection. The same methods apply to subtypes derived from α2β2γ2, α3β3γ2, and α5β3γ2, except for 1:1:1 ratio was used for α, β, and γ subunits.
(§4) All measurements were done in a medium containing ND-96 (96 NaCl, 2 KCl, 1.8 CaCl2.2H2O, 1 MgCl2.6H2O, 5 HEPES, in mM, pH 7.5). Two-electrode voltage-clamp recording was carried out using OpusXpress amplifier (Axon Instruments, Foster City, Calif.), which allows simultaneous recording from 8 oocytes. Oocytes were impaled with two electrodes of 1-2 MΩ tip resistance when filled with 3M KCl. Recordings were begun when membrane potential became stable at potentials negative to −50-−60 mV. Membrane potential was held at −60 mV. […] The concentration of GABA corresponded to the EC10 value calculated for each oocyte. The modulator pulses started 30 s before the GABA pulse so as to allow preincubation with the modulator. A set of 3 pulses with just GABA without modulator was given prior to the modulator-containing pulses to define the baseline GABA response. Two oocytes per each experiment were dedicated to observe the effect of diazepam on GABA response to ensure the presence of γ2 subunit in the GABAA pentameric complex, which imparts diazepam sensitivity to the complex.
(§5) Current amplitude (i) was measured from baseline to peak using Clampfit (Axon Inst., Foster City, Calif.). Potentiation was calculated as percent change from the baseline GABA current flux 100×(imod/icontrol)−1) where imod=current mediated by modulator+GABA and icontrol=current mediated by GABA alone. […] Similarly, a value of −50% potentiation means the presence of modulator caused a 50% decrease in the control current. Various other data shown here were fitted and plotted using GraphPad Prism (GraphPad Software, Inc. San Diego, Calif.). The percentage potentiation was converted to relative potentiation by dividing it with percentage potentiation value obtained from the same assay with diazepam as a control.

[2] = molecular target: T2, human α1β2γ2 GABAA receptor (Homo sapiens, UniProt P14867+P18507); experiment: Two-electrode voltage-clamp in Xenopus oocytes, potentiation of GABA EC10 current, GABAA1; format: cell-based; settings: percentage potentiation of GABA EC10 current divided by that of diazepam control
T2 construct: expressed in transfected cells; host or cells: Xenopus laevis oocytes injected with capped cRNA
T2 sequence (P14867 28-456): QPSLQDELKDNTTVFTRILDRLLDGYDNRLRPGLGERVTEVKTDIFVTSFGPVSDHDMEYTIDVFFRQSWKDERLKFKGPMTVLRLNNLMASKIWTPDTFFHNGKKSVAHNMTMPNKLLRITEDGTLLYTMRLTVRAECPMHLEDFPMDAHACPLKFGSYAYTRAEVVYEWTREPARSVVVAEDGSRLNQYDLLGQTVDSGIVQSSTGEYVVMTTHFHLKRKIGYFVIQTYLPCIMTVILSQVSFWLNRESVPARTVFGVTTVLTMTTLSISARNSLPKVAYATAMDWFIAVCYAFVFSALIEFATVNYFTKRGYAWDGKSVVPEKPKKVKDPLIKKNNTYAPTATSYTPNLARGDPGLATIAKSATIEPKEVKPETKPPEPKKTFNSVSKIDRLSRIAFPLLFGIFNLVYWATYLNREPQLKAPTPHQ
T2 sequence (P47870 25-512 partner limits assumed): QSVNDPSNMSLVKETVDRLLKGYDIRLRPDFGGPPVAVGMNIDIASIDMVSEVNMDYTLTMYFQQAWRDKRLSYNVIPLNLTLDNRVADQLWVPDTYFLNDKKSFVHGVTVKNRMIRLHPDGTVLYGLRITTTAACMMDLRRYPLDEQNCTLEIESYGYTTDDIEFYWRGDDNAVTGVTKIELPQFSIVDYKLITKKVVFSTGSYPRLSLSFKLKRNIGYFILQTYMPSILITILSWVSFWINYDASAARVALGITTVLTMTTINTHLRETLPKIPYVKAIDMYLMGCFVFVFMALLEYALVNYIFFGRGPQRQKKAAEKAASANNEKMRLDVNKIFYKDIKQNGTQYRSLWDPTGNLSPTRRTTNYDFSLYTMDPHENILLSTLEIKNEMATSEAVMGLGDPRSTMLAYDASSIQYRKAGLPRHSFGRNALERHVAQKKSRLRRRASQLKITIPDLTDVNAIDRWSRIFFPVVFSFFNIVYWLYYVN
T2 sequence (P18507 40-475): as the sequence (P18507 40-475) above
Procedure: as §1, §2, §3, §4, §5

MT1 Receptor = MT1 Receptor (Homo sapiens, UniProt P48039); experiment: MT1 Receptor Binding
Sequence of MT1 Receptor (P48039 whole entry): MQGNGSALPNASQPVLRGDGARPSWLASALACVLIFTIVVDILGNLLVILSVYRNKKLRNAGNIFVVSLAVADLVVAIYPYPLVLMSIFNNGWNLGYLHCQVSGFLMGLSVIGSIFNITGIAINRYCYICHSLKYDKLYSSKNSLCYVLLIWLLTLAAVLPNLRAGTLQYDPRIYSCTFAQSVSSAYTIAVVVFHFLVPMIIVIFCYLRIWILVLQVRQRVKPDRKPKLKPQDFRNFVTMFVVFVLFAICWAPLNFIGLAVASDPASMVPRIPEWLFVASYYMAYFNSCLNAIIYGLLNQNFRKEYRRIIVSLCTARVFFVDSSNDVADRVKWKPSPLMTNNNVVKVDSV

[3] = molecular target: human Melatonin receptor 1 (MT1) (Homo sapiens, UniProt P48039); experiment: MT1 GTPγ35S-SPA Assay (Method II); settings: compound used for normalization
Sequence of human Melatonin receptor 1 (MT1) (P48039 whole entry): as above
Procedure: Solid compounds were solubilized at 10 mM in DMSO; then 1:3 further diluted in DMSO in 96-well U-bottom plates using PlateMate on the assay day. 2 μl of diluted compounds were transferred to Opti-assay-plates.
The cell pellets were homogenized using Polytron; and the cell membranes were prepared fro GTPγS assay.
The cell pellets were homogenized with Polytron in ice-cold buffer: 20 mM HEPES, 3 mM MgCl2, 1 mM EGTA, pH7.4. (Freshly add protease inhibitor cocktail tables from Roche). The samples were centrifuged at 18,500 rpm for 30 mins at 4° C. in Sorvall SS-34 rotor. The membrane pellets were collected and washed with the ice-cold buffer. The samples were centrifuged at 18,500 rpm for 30 mins at 4° C. again. The membranes were resuspended in the ice-cold buffer with protease inhibitors. The protein concentration of the membrane was determined. The membranes were aliquoted and stored at −80° C.
Human MT1/HEK293 F membrane (10 μg/well) was mixed with WGA-SPA beads (300 μg/well) and GDP (10 μM) in certain volume of Lazareno assay buffer (20 mM HEPES, 100 mM NaCl, 10 mM MgCl2, pH7.4). […] The assay plates were measured in TopCount to capture the data within 4 hours. […]
Compounds were evaluated for their agonist potency (EC50) and efficacy (Emax). […] Compound's % activity was calculated according to the 100% and 0% activities defined on the same plate as the sample data. […]

With CCCNC(=O)c1nnc2c(-c3cc(OC)ccc3F)cccc2c1N the “Relative Potentiation for GABAA2” value [1] was 0.32 and the “Relative Potentiation for GABAA1” value [2] was 0.26.
For CCCNC(=O)c1nnc2c(-c3cccc(Cl)c3Cl)cccc2c1N, the “Relative Potentiation for GABAA2” value [1] was 0.053 and the “Relative Potentiation for GABAA1” value [2] was 0.067.
With CCCCNC(=O)c1nnc2c(-c3cnccc3OC)cccc2c1N the “Relative Potentiation for GABAA2” value [1] was 0.52 and the “Relative Potentiation for GABAA1” value [2] was 0.2.
With CCCNC(=O)c1nnc2c(-c3cccnc3OC)cccc2c1N the “Relative Potentiation for GABAA2” value [1] was 0.097 and the “Relative Potentiation for GABAA1” value [2] was 0.2.
Compound CCCNC(=O)c1nnc2c(-c3cnccc3OC)cccc2c1N has an inhibition at 1 µM (MT1 Receptor) of 82%.
COc1ccc2[nH]c(I)c(CCNC(C)=O)c2c1 [2-Iodomelatonin] showed an EC100 concentration [3] of 3 nM.
CCCNC(=O)c1nnc2c(-c3ccc4ccccc4c3)cccc2c1N [drawing 381] was tested, and the “Relative Potentiation for GABAA2” value [1] was 0.09 and the “Relative Potentiation for GABAA1” value [2] was 0.22.
With CCCNC(=O)c1nnc2c(-c3c(Cl)cccc3OC)cccc2c1N [drawing 410] the “Relative Potentiation for GABAA2” value [1] was 0.119 and the “Relative Potentiation for GABAA1” value [2] was −0.040.
Compound CCCNC(=O)c1nnc2c(-c3c(F)cccc3OC)cccc2c1N [drawing 423] has an inhibition at 1 µM (MT1 Receptor) of 89%.
